The target in one assay is T1, M1 muscarinic receptor (Homo sapiens, UniProt P11229).
T1 construct: expressed in transfected cells; host or cells: NIH-3T3 cells (ATCC CRL 1658)
T1 sequence (P11229 1-460): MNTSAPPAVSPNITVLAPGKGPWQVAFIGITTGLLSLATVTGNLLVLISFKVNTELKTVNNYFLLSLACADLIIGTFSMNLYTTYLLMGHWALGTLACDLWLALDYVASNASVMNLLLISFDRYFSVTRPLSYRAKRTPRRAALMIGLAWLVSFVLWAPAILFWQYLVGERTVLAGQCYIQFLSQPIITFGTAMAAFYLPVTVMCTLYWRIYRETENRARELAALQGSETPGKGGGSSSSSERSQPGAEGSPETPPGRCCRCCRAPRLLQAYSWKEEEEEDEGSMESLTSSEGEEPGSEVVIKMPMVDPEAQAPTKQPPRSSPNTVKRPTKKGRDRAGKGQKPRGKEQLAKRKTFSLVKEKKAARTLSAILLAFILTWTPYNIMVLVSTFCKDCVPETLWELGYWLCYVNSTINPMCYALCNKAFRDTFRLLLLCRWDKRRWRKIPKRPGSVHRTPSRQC
Description: R-SAT functional assay, muscarinic M1 receptor. The format is cell-based. Particulars: for Emax: NIH3T3, relative to maximum response to carbachol, read-out: M1 % Efficacy; for Emax / EC50: R-SAT, transfected NIH-3T3 cells; for EC50: read-out: M1 pEC50 (converted). As to the method:
(§1) The M1 and M4 muscarinic receptor subtypes were cloned substantially as described by Bonner et al., (1987) Science […] p. 527 and Bonner et al, (1988) Neuron 1, p. 403. R-SAT assays were carried out substantially as described in U.S. Pat. No. 5,707,798 and by Braüner-Osbome, H. B. and Brann, M. R. (1995), Eur. J. Pharmacol. 295:93-102. NIH-3T3 cells (available from the American Type Culture Collection as ATCC CRL 1658) were transfected with plasmid DNA encoding the m1 and m4 receptors and plasmid DNA encoding β-galactosidase. Transfected cells were grown in the presence of between 1 nM and 40 μM of the test compound for 5 days. On day 5, the cells were lysed using 0.5% nonidet-P and β-galactosidase expression was quantified using the chromogenic substrate o-nitrophenyl-p-D-galactoside (ONGP).
(§2) Data were normalized relative to the maximum response of the cells to the muscarinic agonist carbachol, and the following equation was fitted to the data: response=minimum+(maximum−minimum)/(1+([ligand]/EC50)) % Efficacy was defined as (maximum−minimum)/(maximum response of cells to carbachol). pEC50=−log (EC50). Where data gave a bell-shaped curve, “maximum” was defined as the highest observed response.

The target of the next assay is T2, M4 muscarinic receptor (Homo sapiens, UniProt P08173).
T2 construct: expressed in transfected cells; host or cells: NIH-3T3 cells (ATCC CRL 1658)
T2 sequence (P08173 1-479): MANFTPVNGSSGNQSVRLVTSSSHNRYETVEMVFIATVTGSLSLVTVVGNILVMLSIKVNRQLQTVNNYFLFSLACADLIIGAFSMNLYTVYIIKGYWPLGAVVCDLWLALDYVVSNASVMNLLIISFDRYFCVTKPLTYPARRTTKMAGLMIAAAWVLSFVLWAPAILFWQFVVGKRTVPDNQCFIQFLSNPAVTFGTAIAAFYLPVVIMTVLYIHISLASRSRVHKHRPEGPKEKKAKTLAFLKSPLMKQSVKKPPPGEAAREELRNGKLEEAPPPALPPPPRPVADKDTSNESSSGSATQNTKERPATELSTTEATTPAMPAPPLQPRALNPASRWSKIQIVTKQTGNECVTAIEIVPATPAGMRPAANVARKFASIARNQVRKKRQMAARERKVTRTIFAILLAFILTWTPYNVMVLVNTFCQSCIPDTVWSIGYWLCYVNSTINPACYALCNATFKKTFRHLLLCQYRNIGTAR
Put plainly: R-SAT functional assay, muscarinic M4 receptor. The format is cell-based. The note with it: for Emax: NIH3T3, relative to maximum response to carbachol, read-out: M4 % Efficacy; for Emax / EC50: R-SAT, transfected NIH-3T3 cells; for EC50: read-out: M4 pEC50 (converted). As to the method: as §1, §2

Assay [1] addresses T3, human dopamine D2 receptor (Homo sapiens, UniProt P14416).
T3 construct: expressed in transfected cells; host or cells: tSA cells
Description: [3H]-Spiperone radioligand binding to D2 receptor membranes. Particulars: tSA cell membranes, 150 pM [3H]-Spiperone; read-out: D2 [3H]Spiperone pIC50 (converted). As to the method:
The D2 dopamine receptor subtype was cloned substantially as described by Stormann, Gdula, Weiner and Brann, 1990 [Mol Pharmacol 37, 1-6]. Cell membranes expressing the D2 receptor were prepared by transfecting tSA cells (Chahine, M., Bennet, P. B., George, A. L., Horn, R. (1994) Pfluegers Arch. 427, 136-142) with 10 μg plasmid DNA encoding the human dopamine D2 receptor and 40 μl Superfect (Qiagen). The cells were harvested 48 hours and transfection and membranes were prepared by homogenizing the cells using a Polytron harvester in 20 mM Hepes, 10 mM EDTA, pH 7.4. The homogenate was centrifuged for 30 minutes at 37,000 g. The pellet was homogenized again in 60 ml 20 mM Hepes, 5 mM EDTA. The homogenate was centrifuged for 30 minutes at 37,000 g. The supernatant was discarded. The pellet was homogenized again in 10 ml 20 mM Hepes, 1 mM EDTA. The resultant membranes were frozen at −80° C.
The membranes were combined with 150 pM [^3H]-Spiperone (Amersham-Pharmacia, 107 Ci/mmol) and ligand concentrations between 1 nM and 10 μM, or haloperidol concentrations between 0.1 nM and 1 μM in 460 μl 20 mM Hepes, 1 mM EDTA, 0.1% (w/v) bovine serum albumin. Nonspecific binding was defined as binding in the presence of 1 μM haloperidol. The membranes were incubated for 4 hours at 37° C., and then filtered onto Packard GFB Filterplates using a Packard harvester. The membranes were dried and 50 μl Microscint (Packard) was added to each well. The amount of bound radioligand was quantified using a Packard Topcount scintillation counter.
Data were normalized relative to the maximum inhibition of [^3H]-Spiperone binding by 1 μM haloperidol, and the following equation was fitted to the data: % inhibition=minimum+(maximum−minimum)/(1+([ligand]/[IC50])) % inhibition was defined as (maximum−minimum)/(maximum response of cells to haloperidol). pIC50=−log (IC50). NT=not tested. Results

Experimental findings from patent US7291611B2, “Benzimidazolidinone derivatives as muscarinic agents” (ACADIA Pharmaceuticals Inc., priority 2001, dated 2007) are described below.

T3 sequence (P14416 1-414 isoform P14416-2): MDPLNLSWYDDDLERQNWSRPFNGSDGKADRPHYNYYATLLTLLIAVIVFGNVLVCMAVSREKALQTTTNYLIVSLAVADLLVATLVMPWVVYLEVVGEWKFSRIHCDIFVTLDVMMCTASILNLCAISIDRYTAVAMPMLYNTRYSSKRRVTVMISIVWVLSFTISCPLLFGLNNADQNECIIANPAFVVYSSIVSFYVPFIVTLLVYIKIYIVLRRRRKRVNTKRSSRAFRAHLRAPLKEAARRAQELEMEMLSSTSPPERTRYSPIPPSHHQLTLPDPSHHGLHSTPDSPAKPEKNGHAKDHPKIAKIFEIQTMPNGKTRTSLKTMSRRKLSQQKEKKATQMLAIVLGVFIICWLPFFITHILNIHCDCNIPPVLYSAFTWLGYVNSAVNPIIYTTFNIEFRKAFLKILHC

For the compound `CC(C)CC=C1CCN(CCCn2c(=O)[nH]c3ccccc32)CC1` [Compound 45NK-70, 1-{3-[4-(3-Methylbutylidene)piperidin-1-yl]propyl}-1,3-dihydrobenzoimidazol-2-one], at M1 muscarinic receptor, the “binding efficacy for the M1 receptor subtype” value is “high binding efficacy”, the Emax is 70% and the EC50 was 50.1 nM. Besides, at M4 muscarinic receptor, the “binding efficacy for the M4 receptor subtype” value was “high binding efficacy”, the Emax was found to be 40% and the EC50 is 79.4 nM. The IC50 in assay [1] was 631 nM.
Consider `CCCCCC1CCN(CCCn2c(=O)[nH]c3ccccc32)CC1` [Compound 45NK-71, 1-[3-(4-Pentylpiperidin-1-yl)propyl]-1,3-dihydrobenzoimidazol-2-one], for which, on M1 muscarinic receptor, the “binding efficacy for the M1 receptor subtype” value was “high binding efficacy”, the Emax amounted to 71% and the EC50 was 100 nM. Moreover, on M4 muscarinic receptor, the “binding efficacy for the M4 receptor subtype” value is on record as “high binding efficacy”, the Emax was 49% and the EC50 was 251 nM. Further, in assay [1], the IC50 is 398 nM.
Regarding `CCCCC1CCN(CCCn2c(=O)n(C)c3ccccc32)CC1` [Compound 45NK-110, 1-[3-(4-Butylpiperidin-1-yl)propyl]-3-methyl-1,3-dihydrobenzoimidazol-2-one], at M1 muscarinic receptor, the “binding efficacy for the M1 receptor subtype” value is given as “high binding efficacy”, the Emax came out at 89% and the EC50 is 100 nM. On M4 muscarinic receptor, the “binding efficacy for the M4 receptor subtype” value is on record as “high binding efficacy”, the Emax came out at 61% and the EC50 is 1260 nM. Besides, the IC50 in assay [1] was 3160 nM.
In the case of `CCCOC1CCN(CCCn2c(=O)sc3ccccc32)CC1` [Compound 61KS70-1, 3-[3-(4-Propoxy-piperidin-1-yl)-propyl]-3H-benzothiazol-2-one], the Emax at M1 muscarinic receptor was 96%; at M4 muscarinic receptor, 112%. Besides, the EC50 on M1 muscarinic receptor was 79.4 nM; on M4 muscarinic receptor, 794 nM. The IC50 in assay [1] is 316 nM.
Consider `CCCC=C1CCN(CCCn2c(=O)[nH]c3ccccc32)CC1` [Compound 61KS-12, 1-(3-[4-Butylidenepiperidino]propyl)-1,3-dihydrobenzimidazol-2-one], for which, on M1 muscarinic receptor, the “binding efficacy for the M1 receptor subtype” value is “high binding efficacy”, the Emax turned out to be 107% and the EC50 is 31.6 nM. At M4 muscarinic receptor, the “binding efficacy for the M4 receptor subtype” value is reported as “high binding efficacy”, the Emax turned out to be 164% and the EC50 is 79.4 nM. Moreover, the IC50 in assay [1] was 1000 nM.
Turning to `CCCCC=C1CCN(CCCn2c(=O)[nH]c3ccccc32)CC1` [Compound 61KS-13, 1-(3-[4-Pentylidenepiperidino]propyl)-1,3-dihydrobenzimidazole-2-one], at M1 muscarinic receptor, the “binding efficacy for the M1 receptor subtype” value was “high binding efficacy”, the Emax was 106% and the EC50 is 39.8 nM. In addition, on M4 muscarinic receptor, the “binding efficacy for the M4 receptor subtype” value is “high binding efficacy”, the Emax was 100% and the EC50 was 39.8 nM. Further, the IC50 in assay [1] is 398 nM.
For the compound `CCCCC1CCN(CCCn2c(=O)sc3ccccc32)CC1` [Compound 62KK040d, 3-[3-(4-Butylpiperidin-1-yl)propyl]-3H-benzothiazol-2-one], on M1 muscarinic receptor, the Emax was 83% and the EC50 is 25.1 nM. Moreover, on M4 muscarinic receptor, the Emax was 93% and the EC50 was 398 nM. Further, the IC50 in assay [1] is 79.4 nM.
Consider `CCCCCC1CC2CCC(C1)N2CCCn1c(=O)sc2ccccc21` (stereo not drawn) [Compound 79KS97, 3-[3-(3-Pentyl-8-aza-bicyclo[3.2.1]oct-8-yl)-propyl]-3H-benzothiazol-2-one], for which, on M1 muscarinic receptor, the Emax was 70% and the EC50 is 6.31 nM. The IC50 in assay [1] was 100 nM.
Consider `CCCCC1CCN(CCCN2C(=O)Cc3ccccc32)CC1` [Compound 85LM12, 1-(3-(4-Butylpiperidin-1-yl)propyl)-1,3-dihydro-indol-2-one], for which, at M1 muscarinic receptor, the Emax worked out at 78% and the EC50 is 126 nM. Moreover, the IC50 in assay [1] was 398 nM.
`CCCCC1CCN(CC(C)Cn2c(=O)sc3ccccc32)CC1` (stereo not drawn) [Compound 85LM14, 3-(3-(4-Butyl-piperidin-1-yl)-2-methyl-propyl)-3H-benzothiazol-2-one]: on M1 muscarinic receptor, the Emax turned out to be 104% and the EC50 was 31.6 nM. Moreover, at M4 muscarinic receptor, the Emax amounted to 94% and the EC50 was 1580 nM. For the same compound, the IC50 in assay [1] was 79.4 nM.
As for `CCCOC1CCN(CC(C)Cn2c(=O)sc3ccccc32)CC1` (stereo not drawn) [Compound 85LM49B, 3-(3-(4-Propoxy-piperidin-1-yl)-2-methyl-propyl)-3H-benzothiazol-2-one], at M1 muscarinic receptor, the Emax was determined as 98% and the EC50 is 25.1 nM.
Regarding `CCCCC1CCN(C[C@@H](C)Cn2c(=O)sc3ccccc32)CC1` [Compound 85LM91-78R, 3-(3-(4-Butylpiperidin-1-yl)-(R)-2-methylpropyl)-3H-benzothiazol-2-one], the Emax is 99% on M1 muscarinic receptor and 141% at M4 muscarinic receptor. Further, the figures for the EC50 at M1 muscarinic receptor and on M4 muscarinic receptor were 31.6 nM and 794 nM, respectively. The IC50 in assay [1] was 50.1 nM.
In the same order, the values of `CCCCC1CCN(CCCn2c(=O)oc3ccc(F)cc32)CC1` [Compound 86KK22-K, 3-[3-(4-butylpiperidin-1-yl)propyl]-5-fluoro-3H-benzooxazol-2-one] are 75%, 56%, 200 nM, 1260 nM and 631 nM.
Regarding `CCCCC1CCN(CCCn2c(=O)oc3ccc(C)cc32)CC1` [Compound 86KKM25-d, 3-[3-(4-butylpiperidin-1-yl)propyl]-5-methyl-3H-benzooxazol-2-one], the values for the Emax on M1 muscarinic receptor and at M4 muscarinic receptor were 84% and 63%, respectively. Further, the EC50 at M1 muscarinic receptor is 100 nM; on M4 muscarinic receptor, 794 nM.
As to `CCCCC1CCN(CCCn2c(=O)oc3cc(F)ccc32)CC1` [Compound 97KK28, 3-[3-(4-butylpiperidin-1-yl)propyl]-6-fluoro-3H-benzooxazol-2-one], at M1 muscarinic receptor, the Emax is 71% and the EC50 was 200 nM. In addition, the IC50 in assay [1] was 251 nM.
